Marks after values point to notes of the source that are not given here.
Tested on: New Zealand White rabbits
Experiment: Embryo-fetal developmental toxicity study in New Zealand White rabbits (Example 4);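 note: dams given a detailed clinical exam daily GD 6 to 29, about 4 h after dosing, then laparohysterectomy on GD 29 with external, visceral and skeletal fetal examination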

## CC(C)NC(=O)COc1cccc(-c2nc(Nc3ccc4[nH]ncc4c3)c3ccccc3n2)c1 [belumosudil, 2-{3-[4-(1H-indazol-5-ylamino)-2-quinazolinyl]phenoxy}-N-(propan-2-yl) acetamide]
50 mg base/kg/day
  Fetal External Malformation: Short Tail, No. Fetuses (incidence): 0 (0.0)
  Fetal External Malformation: Short Tail, No. Litters (incidence): 0 (0.0)
  Fetal External Malformations, No. Fetuses (incidence): 1 (0.5)
  Fetal External Malformations, No. Litters (incidence): 1 (4.5)
  Fetal Skeletal Malformations, No. Fetuses (incidence): 8 (4.3)
  Fetal Skeletal Malformations, No. Litters (incidence): 6 (27.3)
  Fetal Visceral Variations, No. Fetuses (incidence): 6 (3.2)
  Fetal Visceral Variations, No. Litters (incidence): 4 (18.2)
  Maternal Food Consumption GD 0-29: 141.1
  Maternal Food Consumption GD 6-10: 149.4
  Maternal Food Consumption GD 6-19: 142.7
  Maternal Food Consumption GD 6-19, % Difference From Control: −8.8%
  Maternal Food Consumption GD 19-29: 136.0
  Mean Fetal Body Weight Females: 40.25 g
  Mean Fetal Body Weight Genders Combined: 40.97 g
  Mean Fetal Body Weight Males: 41.64 g
  Mean Live Litter Size: 8.5
  Mean Number of Early Resorptions: 0.2
  Mean Number of Resorptions (Combined): 0.2
  Mean Postimplantation Loss: 2.42 %/Litter
  Number Litters with Viable Fetuses GD29: 22
  Number with All Resorptions GD29: 0
50 mg base/kg/day, 23 females
  Number Aborted: 0
  Number Litters with Viable Fetuses GD29: 22
  Number Not Pregnant: 1
  Number with All Resorptions GD29: 0
50 mg base/kg/day, GD 0-29
  Activity decreased, times observed/animals affected: 0/0
  Feces few/absent, times observed/animals affected: 0/0
  Hair discolored, Brown, Anogenital region, times observed/animals affected: 0/0
  Hair discolored, Brown, Ear/left, times observed/animals affected: 12/1
  Hair discolored, Brown, Ear/right, times observed/animals affected: 12/1
  Hair discolored, Brown, Face, times observed/animals affected: 24/3
  Hair discolored, Brown, Hind limb/left, times observed/animals affected: 3/1
  Hair discolored, Red, Anogenital region, times observed/animals affected: 0/0
  Hair discolored, Red, Face, times observed/animals affected: 0/0
  Hair discolored, Red, Forelimb/left, times observed/animals affected: 1/1
  Hair discolored, Red, Thoracic region, times observed/animals affected: 1/1
  Hair discolored, Yellow, Ear/right, times observed/animals affected: 0/0
  Hair discolored, Yellow, Face, times observed/animals affected: 27/2
  Hair sparse, Anogenital region, times observed/animals affected: 0/0
  Hair sparse, Axillary region/left, times observed/animals affected: 0/0
  Hair sparse, Axillary region/right, times observed/animals affected: 0/0
  Hair sparse, Cervical region, times observed/animals affected: 0/0
  Hair sparse, Ear/left, times observed/animals affected: 0/0
  Hair sparse, Ear/right, times observed/animals affected: 0/0
  Hair sparse, Forefoot/left, times observed/animals affected: 5/1
  Hair sparse, Forefoot/right, times observed/animals affected: 4/1
  Hair sparse, Forelimb/left, times observed/animals affected: 5/1
  Hair sparse, Hind limb/left, times observed/animals affected: 5/1
  Hair sparse, Inguinal region/right, times observed/animals affected: 0/0
  Hair sparse, Shoulder/left, times observed/animals affected: 0/0
  Hair sparse, Thoracic region, times observed/animals affected: 0/0
  Hair sparse, Ventral surface, times observed/animals affected: 0/0
  Material in pan/bedding, Red, times observed/animals affected: 0/0
  Nail missing, Forefoot/left, times observed/animals affected: 1/1
  Scabbed area, Ear/left, times observed/animals affected: 0/0
  Scabbed area, Nose/muzzle, times observed/animals affected: 0/0
  Skin discolored, Pale, Entire body, times observed/animals affected: 0/0
  Swelling, Nose/muzzle, times observed/animals affected: 0/0
  Swelling, Vulva, times observed/animals affected: 3/1
  Thin, times observed/animals affected: 0/0
125 mg base/kg/day
  Fetal External Malformation: Short Tail, No. Fetuses (incidence): 0 (0.0)
  Fetal External Malformation: Short Tail, No. Litters (incidence): 0 (0.0)
  Fetal External Malformations, No. Fetuses (incidence): 0 (0.0)
  Fetal External Malformations, No. Litters (incidence): 0 (0.0)
  Fetal Skeletal Malformations, No. Fetuses (incidence): 10 (6.6)
  Fetal Skeletal Malformations, No. Litters (incidence): 6 (31.6)
  Fetal Visceral Variations, No. Fetuses (incidence): 11 (7.2)
  Fetal Visceral Variations, No. Litters (incidence): 7 (36.8)
  Maternal Body Weight Change GD 0-29, % Difference From Control: −8.6%
  Maternal Body Weight GD 19, % Difference From Control: −5.1%
  Maternal Food Consumption GD 0-29: 128.8
  Maternal Food Consumption GD 0-29, % Difference From Control: −11.6%
  Maternal Food Consumption GD 6-10: 117.9^b
  Maternal Food Consumption GD 6-19: 103.1
  Maternal Food Consumption GD 6-19, % Difference From Control: −34.1%
  Maternal Food Consumption GD 19-29: 149.9^a
  Mean Fetal Body Weight Females: 41.14 g
  Mean Fetal Body Weight Genders Combined: 41.09 g
  Mean Fetal Body Weight Males: 41.61 g
  Mean Live Litter Size: 8.0
  Mean Number of Early Resorptions: 0.5
  Mean Number of Resorptions (Combined): 0.7
  Mean Postimplantation Loss: 7.42 %/Litter
  Number Litters with Viable Fetuses GD29: 19
  Number with All Resorptions GD29: 0
  ureter malpositioned, litter incidence: 21.1%
125 mg base/kg/day, 23 females
  Number Aborted: 1
  Number Litters with Viable Fetuses GD29: 19
  Number Not Pregnant: 3
  Number with All Resorptions GD29: 0
125 mg base/kg/day, GD 0-29
  Activity decreased, times observed/animals affected: 0/0
  Feces few/absent, times observed/animals affected: 0/0
  Hair discolored, Brown, Anogenital region, times observed/animals affected: 7/1
  Hair discolored, Brown, Ear/left, times observed/animals affected: 0/0
  Hair discolored, Brown, Ear/right, times observed/animals affected: 0/0
  Hair discolored, Brown, Face, times observed/animals affected: 0/0
  Hair discolored, Brown, Hind limb/left, times observed/animals affected: 0/0
  Hair discolored, Red, Anogenital region, times observed/animals affected: 1/1
  Hair discolored, Red, Face, times observed/animals affected: 2/1
  Hair discolored, Red, Forelimb/left, times observed/animals affected: 0/0
  Hair discolored, Red, Thoracic region, times observed/animals affected: 0/0
  Hair discolored, Yellow, Ear/right, times observed/animals affected: 0/0
  Hair discolored, Yellow, Face, times observed/animals affected: 10/1
  Hair sparse, Anogenital region, times observed/animals affected: 15/2
  Hair sparse, Axillary region/left, times observed/animals affected: 2/1
  Hair sparse, Axillary region/right, times observed/animals affected: 2/1
  Hair sparse, Cervical region, times observed/animals affected: 1/1
  Hair sparse, Ear/left, times observed/animals affected: 0/0
  Hair sparse, Ear/right, times observed/animals affected: 0/0
  Hair sparse, Forefoot/left, times observed/animals affected: 0/0
